Source: patent publication US9403829B2, “Pharmaceutical compositions of 7-(6-(2-hydroxypropan-2-yl)pyridin-3-yl)-1-((trans)-4-methoxycyclohexyl)-3,4-dihydropyrazino [2,3-b]pyrazin-2(1H)-one, a solid form thereof and methods of their use” (Signal Pharmaceuticals, LLC, priority 2011, dated 2016)
Like-named read-outs stand apart in the source and are kept apart here.

Assay: Phase 1 crossover pharmacokinetic study of tablet and capsule formulations, single oral dose
Assay type: in vivo, human
Conditions: male, human, plasma, oral; for AUC(0-t): read-out: AUC0-24
Procedure: Certain formulations provided herein were evaluated in a Phase 1, open-label, randomized, crossover study.
On Day 1 of Period 1, following an overnight fast of at least 8 hours, subjects were randomized to one of the following 3 sequences to receive Treatment A, B or C (Table 30).
In Treatment A, one 20-mg reference Compound A API-in-capsule was administered orally after at least 8 hour fast with 240 mL of non-carbonated, room temperature water. In Treatment B, one 20-mg tablet of Compound A (Tablet Formulation XIII) was administered under fasted conditions. In Treatment C, four 5-mg tablets of Compound A (Tablet Formulation XIV) were administered under fasted conditions. The 20-mg tablet and four 5-mg tablets were administered orally after at least 8 hour fast with 240 mL of non-carbonated, room temperature water.
For each period, serial blood samples were collected before dosing (zero hour) and at 0.5, 1, 1.5, 2, 2.5, 3, 4, 6, 8, 12, 24, 48, 72, and 96 hours after dosing. Plasma concentrations of Compound A were determined for determining PK parameters, such as […], AUC0-∞, Cmax, Tmax, t1/2, CL/F, and Vz/F for Compound A. Plasma PK parameters were calculated using non compartmental methods. Analyses of variance (ANOVA) were performed on the natural log-transformed AUC0-t, AUC0-∞, and Cmax for Compound A. The geometric mean ratios (test/reference) and their 90% confidence intervals were also calculated. For Tmax, non parametric analysis was used to produce median differences.

[1] = upon administration of about 20 mg of Compound A (protocol of Section 6.5.1)
[2] = Treatment A: one 20-mg Compound A API-in-capsule, fasted, n = 18, geometric mean

Which Cmax [1] does the source give for `CC(C)(O)c1ccc(-c2cnc3c(n2)N([C@H]2CC[C@H](O)CC2)C(=O)CN3)cn1` [O-Desmethyl metabolite, 1-((1r,4r)-4-hydroxycyclohexyl)-7-(6-(2-hydroxypropan-2-yl)pyridin-3-yl)-3,4-dihydropyrazino[2,3-b]pyrazin-2(1H)-one] here?
The Cmax was 503 ng/mL.

What about the Tmax [1] of the same molecule?
Its Tmax is 3 h.

And the half-life [1]?
The half-life was 14.3 h.

What about the AUC(0-t) [1] of the same molecule?
The AUC(0-t) was 7480 ng·h/mL.

And the AUC(0-inf) (upon administration of about 20 mg of Compound A (protocol of Section 6.5.1), read-out: AUC∞)?
The AUC(0-inf) was 11900 ng·h/mL.

What about the half-life [2] of the same molecule?
The half-life was 14.3 h.

What about the Tmax (Treatment A: one 20-mg Compound A API-in-capsule, fasted, healthy adult males, n = 18, median) of the same molecule?
Its Tmax is 3 h.

What about the Cmax [2] of the same molecule?
The Cmax was 503 ng/mL.

And the AUC(0-t) [2]?
The AUC(0-t) was 7480 ng·h/mL.

What about the AUC(0-inf) (Treatment A: one 20-mg Compound A API-in-capsule, fasted, n = 18, geometric mean, read-out: AUC0-∞) of the same molecule?
The AUC(0-inf) was 11900 ng·h/mL.
